Laboratory results taken from ChEMBL document CHEMBL1134476, “Pharmacological and behavioral analysis of the effects of some bivalent ligand-based monoamine reuptake inhibitors” (J Med Chem, 2001).
pKi: −log10 of the molar value.

Columns and labels:
Type in all cases: subcellular, Brain
[1] = target: T1, Sodium-dependent dopamine transporter (Rattus norvegicus, UniProt P23977); test: Displacement of [3H]mazindol binding to dopamine transporter (DAT) in rat synaptosomes
[2] = target: T1, Sodium-dependent dopamine transporter; test: Inhibition of high affinity DA uptake into rat synaptosomes using [3H]DA
[3] = target: T2, Norepinephrine transporter (Rattus norvegicus, UniProt Q9WTR4); test: Ability to inhibit high affinity uptake of norepinephrine transporter into the nerve endings of rat synaptosomes using [3H]NE as a radioligand
[4] = target: Sodium-dependent serotonin transporter (Rattus norvegicus, UniProt P31652); test: Inhibition of high affinity serotonin uptake into rat synaptosomes using [3H]5-HT
[5] = target: T2, Norepinephrine transporter; test: Ability to inhibit high affinity uptake of norepinephrine transporter into the nerve endings of rat synaptosomes using [3H]NE radioligand
[6] = target: T1, Sodium-dependent dopamine transporter; test: Ability to inhibit high affinity uptake of DA into the nerve endings of rat synaptosomes using [3H]DA as a radioligand

Sodium-dependent serotonin transporter, sequence (P31652 whole entry): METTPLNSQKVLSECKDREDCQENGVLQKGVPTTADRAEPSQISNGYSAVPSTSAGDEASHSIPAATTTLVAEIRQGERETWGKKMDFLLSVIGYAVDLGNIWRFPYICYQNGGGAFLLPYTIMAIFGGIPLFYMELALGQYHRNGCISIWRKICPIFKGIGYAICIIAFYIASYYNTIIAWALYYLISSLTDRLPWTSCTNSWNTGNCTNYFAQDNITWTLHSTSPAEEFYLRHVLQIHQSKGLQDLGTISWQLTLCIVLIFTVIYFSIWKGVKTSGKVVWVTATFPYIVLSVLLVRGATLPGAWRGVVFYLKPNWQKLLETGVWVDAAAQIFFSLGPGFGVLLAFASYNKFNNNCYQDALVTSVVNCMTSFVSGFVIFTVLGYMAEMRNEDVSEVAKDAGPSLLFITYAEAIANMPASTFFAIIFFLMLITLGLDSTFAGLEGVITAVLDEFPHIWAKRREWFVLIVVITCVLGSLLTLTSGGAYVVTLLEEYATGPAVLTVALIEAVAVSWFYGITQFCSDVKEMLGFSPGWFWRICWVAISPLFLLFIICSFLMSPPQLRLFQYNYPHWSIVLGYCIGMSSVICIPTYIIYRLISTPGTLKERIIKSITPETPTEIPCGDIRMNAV
T1 sequence (P23977 whole entry): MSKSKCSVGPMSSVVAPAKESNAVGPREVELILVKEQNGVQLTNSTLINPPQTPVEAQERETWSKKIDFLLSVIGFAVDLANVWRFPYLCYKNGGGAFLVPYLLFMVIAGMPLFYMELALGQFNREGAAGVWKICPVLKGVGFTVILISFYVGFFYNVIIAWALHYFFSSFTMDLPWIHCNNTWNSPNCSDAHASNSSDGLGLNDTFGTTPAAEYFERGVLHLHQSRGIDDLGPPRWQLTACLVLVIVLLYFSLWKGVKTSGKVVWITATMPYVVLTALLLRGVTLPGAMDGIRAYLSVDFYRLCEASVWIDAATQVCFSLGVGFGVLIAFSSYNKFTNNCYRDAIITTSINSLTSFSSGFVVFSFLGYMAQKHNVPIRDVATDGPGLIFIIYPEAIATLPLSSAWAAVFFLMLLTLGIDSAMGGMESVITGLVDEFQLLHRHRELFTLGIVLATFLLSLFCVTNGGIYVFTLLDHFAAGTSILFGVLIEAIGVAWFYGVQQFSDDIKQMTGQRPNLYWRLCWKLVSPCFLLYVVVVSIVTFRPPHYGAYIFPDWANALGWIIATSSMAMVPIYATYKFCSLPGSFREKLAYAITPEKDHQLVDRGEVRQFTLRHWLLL
T2 sequence (Q9WTR4 whole entry): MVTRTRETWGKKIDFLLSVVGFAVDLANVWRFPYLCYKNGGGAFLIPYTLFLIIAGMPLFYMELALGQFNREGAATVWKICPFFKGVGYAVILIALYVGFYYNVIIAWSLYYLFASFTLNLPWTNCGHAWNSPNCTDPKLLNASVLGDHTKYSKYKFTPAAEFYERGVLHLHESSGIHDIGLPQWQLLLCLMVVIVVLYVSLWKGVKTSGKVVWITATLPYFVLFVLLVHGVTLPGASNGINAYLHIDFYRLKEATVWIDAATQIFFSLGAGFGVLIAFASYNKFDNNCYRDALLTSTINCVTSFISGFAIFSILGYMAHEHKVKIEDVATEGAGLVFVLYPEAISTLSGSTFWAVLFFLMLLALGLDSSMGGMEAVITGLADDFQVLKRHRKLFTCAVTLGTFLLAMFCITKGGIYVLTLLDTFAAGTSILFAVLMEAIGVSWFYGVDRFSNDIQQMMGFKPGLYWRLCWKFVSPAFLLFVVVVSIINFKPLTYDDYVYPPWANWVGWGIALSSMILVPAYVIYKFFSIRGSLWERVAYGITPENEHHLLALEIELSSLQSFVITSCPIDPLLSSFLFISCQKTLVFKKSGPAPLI

For `CNC(=O)[C@H]1CN(C)CC[C@@H]1c1ccc(Cl)cc1`, the pKi [1] was < 4.92, the pKi [2] was < 5.05 and the pKi [3] was 5.36. The pKi [4] was < 4.28.

For `CN1CC[C@@H](c2ccc(Cl)cc2)[C@H](C(=O)NCCCNC(=O)[C@@H]2CN(C)CC[C@H]2c2ccc(Cl)cc2)C1`, the pKi [1] was < 5.19, the pKi [2] was 5.29 and the pKi [3] was 6.43. It also gave a pKi [4] of 6.47.

`COC(=O)[C@H]1CN(C)CC[C@@H]1c1ccc(Cl)cc1` gave a pKi [1] of 6.61, a pKi [2] of 6.64 and a pKi [5] of 7.05. The pKi [4] was 5.23.

With `CN1CC[C@H](c2ccc(Cl)cc2)[C@@H](C(=O)NCCCNC(=O)[C@H]2CN(C)CC[C@@H]2c2ccc(Cl)cc2)C1` the pKi [1] was 8.08, the pKi [2] was 7.85 and the pKi [3] was 6.84. It also gave a pKi [4] of 6.25.

Compound `CN1CC[C@H](c2ccc(Cl)cc2)[C@@H](C(=O)NCCCCCCCCNC(=O)[C@H]2CN(C)CC[C@@H]2c2ccc(Cl)cc2)C1` has a pKi [1] of 6.53, a pKi [2] of 6.47 and a pKi [3] of 5.70. It also gave a pKi [4] of 7.25.

`CN1CC[C@H](c2ccc(Cl)cc2)[C@@H](C(=O)NCCCCCNC(=O)c2ccc(Cl)cc2)C1` was tested, and the pKi [1] was 6.71, the pKi [2] was 6.59 and the pKi [3] was 6.26. For the same compound, the pKi [4] was 6.80.

`COC(=O)[C@@H]1CN(C)CC[C@H]1c1ccc(Cl)cc1` was tested, and the pKi [1] was 5.75, the pKi [2] was 5.54 and the pKi [5] was 6.62. For the same compound, the pKi [4] was 5.44.

`CN1CC[C@H](c2ccc(Cl)cc2)[C@@H](C(=O)NCCCCCNC(=O)c2ccccc2)C1` gave a pKi [1] of 6.39, a pKi [2] of 6.33 and a pKi [3] of 5.92. It also gave a pKi [4] of 6.31.

`CN1CC[C@H](c2ccc(Cl)cc2)[C@@H](C(=O)NCCCCCNC(=O)[C@H]2CN(C)CC[C@@H]2c2ccc(Cl)cc2)C1` showed a pKi [1] of 6.99, a pKi [2] of 7.41 and a pKi [3] of 6.80. The pKi [4] was 8.15.

`CN1CC[C@H](c2ccc(Cl)cc2)[C@@H](C(=O)NCCCCCNC(=O)/C=C/c2ccc(Cl)cc2)C1` gave a pKi [1] of 6.61, a pKi [2] of 6.60 and a pKi [3] of 5.97. For the same compound, the pKi [4] was 6.88.

For `CN1CC[C@@H](c2ccc(Cl)cc2)[C@H](C(=O)NCCCCCNC(=O)[C@@H]2CN(C)CC[C@H]2c2ccc(Cl)cc2)C1`, the pKi [1] was 5.84 and the pKi [3] was 6.41.

With `CN1CC[C@H](c2ccc(Cl)cc2)[C@@H](C(=O)OCCCCCOC(=O)[C@H]2CN(C)CC[C@@H]2c2ccc(Cl)cc2)C1` the pKi [1] was 7.19, the pKi [2] was 7.25 and the pKi [3] was 6.74. For the same compound, the pKi [4] was 7.60.

For `CN1CC[C@H](c2ccc(Cl)cc2)[C@@H](C(=O)NCCCCCCNC(=O)[C@H]2CN(C)CC[C@@H]2c2ccc(Cl)cc2)C1`, the pKi [1] was 6.40, the pKi [2] was 7.12 and the pKi [3] was 6.24. It also gave a pKi [4] of 7.22.

`CN1CC[C@@H](c2ccc(Cl)cc2)[C@H](C(=O)NCCCCCCCCNC(=O)[C@@H]2CN(C)CC[C@H]2c2ccc(Cl)cc2)C1` showed a pKi [6] of 5.50, a pKi [3] of 5.98 and a pKi [4] of 8.68.

For `CN1CC[C@H](c2ccc(Cl)cc2)[C@@H](C(=O)NCCCCCCCNC(=O)[C@H]2CN(C)CC[C@@H]2c2ccc(Cl)cc2)C1`, the pKi [1] was 6.46, the pKi [2] was 6.72 and the pKi [3] was 6.40. The pKi [4] was 7.40.

For `CN1CC[C@H](c2ccc(Cl)cc2)[C@@H](C(=O)NCCCCNC(=O)[C@H]2CN(C)CC[C@@H]2c2ccc(Cl)cc2)C1`, the pKi [1] was 7.09, the pKi [2] was 7.48 and the pKi [3] was 6.98. For the same compound, the pKi [4] was 6.27.

`CN1CC[C@H](c2ccc(Cl)cc2)[C@@H](C(=O)OCCCOC(=O)[C@H]2CN(C)CC[C@@H]2c2ccc(Cl)cc2)C1` was tested, and the pKi [1] was 7.17, the pKi [2] was 6.97 and the pKi [3] was 6.47. For the same compound, the pKi [4] was 6.14.

With `CNC(=O)[C@@H]1CN(C)CC[C@H]1c1ccc(Cl)cc1` the pKi [1] was < 4.41, the pKi [2] was < 4.15 and the pKi [5] was 5.51. For the same compound, the pKi [4] was < 5.00.

`CN1CC[C@H](c2ccc(Cl)cc2)[C@@H](C(=O)OCCCCCCCCOC(=O)[C@H]2CN(C)CC[C@@H]2c2ccc(Cl)cc2)C1` gave a pKi [1] of 6.04, a pKi [2] of 6.85 and a pKi [3] of 6.18. The pKi [4] was 6.76.
